Reference: ChEMBL document CHEMBL3421576, “N-((1,3-Diphenyl-1H-pyrazol-4-yl)methyl)anilines: A novel class of anti-RSV agents” (Bioorg Med Chem Lett, 2015)

Legend:
[1] = Cytotoxicity against African green monkey Vero 76 cells assessed as cell viability after 48 to 96 hrs by MTT method; type: cell-based; details: chlorocebus sabaeus, Vero 76 cells
[2] = tested on: Vaccinia virus; test: Antiviral activity against Vaccinia virus infected in African green monkey Vero 76 cells after 3 days by plaque reduction assay; type: functional, organism-based, Orthopoxvirus vaccinia; details: Orthopoxvirus vaccinia, Vero, 72 h
[3] = Cytotoxicity against hamster BHK21 cells assessed as cell viability after 72 hrs by MTT method; type: cell-based, Mesocricetus auratus, BHK-21
[4] = tested on: Human alphaherpesvirus 1; test: Antiviral activity against HSV1 infected in African green monkey Vero 76 cells after 3 days by plaque reduction assay; type: functional, organism-based; details: Human alphaherpesvirus 1, Vero, 72 h
[5] = tested on: Respiratory syncytial virus; test: Antiviral activity against RSV infected in African green monkey Vero 76 cells after 5 days by plaque reduction assay; type: functional, organism-based; details: human respiratory syncytial virus, Vero, 120 h
[6] = tested on: Yellow fever virus; test: Antiviral activity against YFV infected in hamster BHK21 cells assessed as protection against viral-induced cytopathogenecity after 3 to 4 days by MTT method; type: functional, organism-based, BHK-21; details: Yellow fever virus, BHK-21
[7] = tested on: Human immunodeficiency virus 1; test: Antiviral activity against HIV1 infected in human MT4 cells assessed as protection against viral-induced cytopathogenecity after 4 days by MTT method; type: functional, organism-based; details: Human immunodeficiency virus 1, MT4, 96 h
[8] = tested on: Enterovirus C; test: Antiviral activity against Poliovirus Sb-1 infected in African green monkey Vero 76 cells after 2 days by plaque reduction assay; type: functional, organism-based; details: Enterovirus C, Sb-1, Vero, 48 h
[9] = tested on: Bovine viral diarrhea virus 1; test: Antiviral activity against BVDV infected in bovine MDBK cells assessed as protection against viral-induced cytopathogenecity after 3 to 4 days by MTT method; type: functional, organism-based; details: Bovine viral diarrhea virus isolates and strains, MDBK
[10] = Cytotoxicity against human MT4 cells assessed as cell viability after 96 hrs by MTT method; type: cell-based
[11] = tested on: Vesicular stomatitis virus; test: Antiviral activity against VSV infected in African green monkey Vero 76 cells after 2 days by plaque reduction assay; type: functional, organism-based; details: Vesicular stomatitis virus, Vero, 48 h
[12] = tested on: Coxsackievirus B5; test: Antiviral activity against Coxsackievirus B5 infected in African green monkey Vero 76 cells after 3 days by plaque reduction assay; type: functional, organism-based; details: Enterovirus B, Vero, 72 h
[13] = Cytotoxicity against bovine MDBK cells assessed as cell viability after 72 hrs by MTT method; type: cell-based, Bos taurus; details: cattle
[14] = tested on: Mammalian orthoreovirus 1; test: Antiviral activity against Reovirus 1 infected in hamster BHK21 cells assessed as protection against viral-induced cytopathogenecity after 3 to 4 days by MTT method; type: functional, cell-based; details: Mammalian orthoreovirus 1, BHK-21
[15] = Selectivity index, ratio of CC50 for hamster BHK21 cells to EC50 for YFV infected in hamster BHK21 cells; design: species or system BHK-21
[16] = Selectivity index, ratio of CC50 for African green monkey Vero 76 cells to EC50 for RSV infected in African green monkey Vero 76 cells
[17] = Selectivity index, ratio of CC50 for bovine MDBK cells to EC50 for BVDV infected in bovine MDBK cells

Structure (SMILES)	CC50 [1] [µM]	EC50 [2] [µM]	CC50 at 72 h [3] [µM]	EC50 [4] [µM]	EC50 [5] [µM]	EC50 [6] [µM]	EC50 [7] [µM]	EC50 [8] [µM]	EC50 [9] [µM]	CC50 at 96 h [10] [µM]	EC50 [11] [µM]	EC50 [12] [µM]	CC50 at 72 h [13] [µM]	EC50 [14] [µM]	Ratio CC50/EC50 [15]	Ratio CC50/EC50 [16]	Ratio CC50/EC50 [17]
FC(F)(F)c1ccc(NCc2cn(-c3ccccc3)nc2-c2ccccc2)cc1	17	> 75	37	> 75	> 17	> 37	> 100	> 75	> 34	> 100	> 75	> 75	34	> 37			
FC(F)(F)c1ccc(NCc2cn(-c3ccccc3)nc2-c2ccc(Cl)cc2)cc1	18	> 18	17	> 18	> 18	> 17	> 100	> 18	> 31	> 100	> 18	> 18	31	> 17			
FC(F)(F)c1ccc(NCc2cn(-c3ccccc3)nc2-c2ccc(C(F)(F)F)cc2)cc1	26	> 26	27	> 26	> 26	> 37	> 100	> 26	> 26	> 100	> 26	> 26	26	> 27			
Cc1ccc(-c2nn(-c3ccccc3)cc2CNc2ccc(C(F)(F)F)cc2)cc1	45	> 45	88	> 45	> 45	> 100	> 100	> 45	> 100	> 100	> 45	> 45	> 100	> 88			
FC(F)(F)c1ccc(NCc2cn(-c3ccccc3)nc2-c2ccc(Br)cc2)cc1	28	> 28	20	> 28	> 28	> 28	> 100	> 28	> 46	> 100	> 28	> 28	46	> 20			
C[C@@]1(O)[C@H](O)[C@@H](CO)O[C@H]1n1ccc(N)nc1=O			> 100											6			
O=c1cnn([C@@H]2O[C@H](CO)[C@@H](O)[C@H]2O)c(=O)[nH]1 [6-AZAURIDINE]	10		> 100		0.9	46									>2.2	11.1	
Nc1nc2c(ncn2COCCO)c(=O)[nH]1 [ACYCLOVIR]	> 100			2.8													
COc1c(C)c2c(c(O)c1C/C=C(\C)CCC(=O)O)C(=O)OC2 [MYCOPHENOLIC ACID]	19	1.5															
Cc1cc(CCCOc2c(C)cc(-c3noc(C(F)(F)F)n3)cc2C)on1 [PLECONARIL]	80							2.2				0.005					
NC(=O)c1ncn([C@@H]2O[C@H](CO)[C@@H](O)[C@H]2O)n1 [RIBAVIRIN]	> 100				35				19				57			>2.8	3
